Assay results taken from PMC6908736, “Toxic Tau Oligomers Modulated by Novel Curcumin Derivatives” (Scientific Reports, 2019).
Where two headings read alike, the source gives them in different places.

Tests used:
[1] = system: human neuroblastoma SH-SY5Y cell line; experiment: MTS cytotoxicity of curcumin derivatives (dose-response); type: cell-based; set-up: LogIC50 (cell viability): unit not given here; settings: for IC50: Homo sapiens; for LogIC50 (cell viability): n = 3
Description: Six compounds were selected due to their higher activity in modulating toxic TauO and subjected to additional in vitro testing to validate their effects on TauO (Fig. 2B). […] Compounds CL3,8 were obtained through a double aldol condensation on the diacetyl of the appropriate aromatic aldehyde 1[58]. Similarly, HemiC9 was obtained by means of Claisen-Schmidt Aldol condensation of acetone under basic conditions (Fig. 2C)[59]. Heterocyclic derivative CH8 was obtained in a two-step procedure from the corresponding cinnamic acid derivative 2 (Fig. 2D)[60]. […] This method allows the obtainment of target products avoiding the use of protecting groups. One of the criteria used to select these small molecules was evaluating their toxicity profile. The cytotoxicity of each curcumin derivative was examined by exposing the cultured human neuroblastoma SH-SY5Y cell line to a continuous range of small molecule concentrations (0–800 μM) and monitoring cell survival after 24 hours of treatment by an MTS assay. […] Human neuroblastoma SH-SY5Y cells (ATCC CRL-2266) were maintained in DMEM and grown to confluence in 96-well plates as previously described. […] The dose-response curve was used to calculate the concentration of the compound required for 50% inhibition of cell viability (IC50). Cell viability was corrected by the vehicle background. All measurements were performed in triplicate. The cytotoxic effect was determined using MTS assay (G3582, Promega) for assessing cell viability following the manufacturers’ instructions. Optical density (OD) was measured at 490 nm with POLARstar OMEGA plate reader (BMG Labtechnologies). Cell viability was calculated as the percentage of the OD value of treated cells compared to untreated controls, according to the following equation: Viability = (OD SAMPLE/OD CONTROL) × 100%.

[2] = molecular target: T1, preformed recombinant tau oligomers (TauO) (Homo sapiens, UniProt P10636); experiment: Western blot of tau oligomers with and without compounds; type: biochemical; settings: curcumin 1:5 and 1:10 molar ratio
T1 construct: made in house
Method: The tau pellet was treated with 8 M urea followed by overnight dialysis against 1X phosphate-buffered saline (PBS) pH 7.4. Tau concentration was measured using bicinchoninic acid protein assay (Pierce BCA Protein Assay Kit, 23225, Thermo Fisher Scientific) and normalized to 1 mg/mL by adding 1X PBS. Aliquots of tau monomer in PBS were stored at -20 °C. Each 300 µL of tau stock (0.3 mg) was added to 700 µL of 1X PBS and incubated for 1 hour on an orbital shaker at room temperature. After shaking, the resulting tau oligomers were purified by fast protein liquid chromatography (FPLC, Superdex 200 Increase 10/300 column, Amersham Biosciences).
(§1) A volume of 100 μL of tau oligomers (1 µg/μL) was incubated with curcumin (1:5 and 1:10 molar ratio) and curcumin derivatives (1:5 molar ratio). Compounds were dissolved in EtOH 75%/DMSO (5:1) at a final concentration of 5 mM and diluted in 1X PBS or ddH2O for incubation or toxicity assay (final concentration 5 μM). Tau oligomers in the presence of the small molecules and controls were incubated on an orbital shaker, without stirring, for 16 hours under oligomerization conditions as previously described.
An amount of 3 µg of each sample were resolved on a pre-cast NuPAGE 4–12% Bis-Tris Gels for SDS-PAGE (NP0335BOX, Invitrogen) and transferred to nitrocellulose membranes. […]

[3] = molecular target: T1, preformed recombinant tau oligomers (TauO); experiment: Direct ELISA, dot blot and filter trap of tau oligomers (T22, TOMA1, Tau 5); type: biochemical; settings: curcumin 1:5 and 1:10 molar ratio, vs untreated TauO
Method: as §1
Dot blot assay to detect tau oligomers in the absence or presence of small molecules was performed as previously described. Briefly, 1.5 μl of each end-product reaction was applied onto nitrocellulose membranes and then blocked with 10% nonfat milk in TBS-T overnight at 4 °C. The next day, membranes were probed with the oligomer-specific tau antibodies, T22 (1:250), TOMA1(1:200) and total tau antibody, Tau 5, (1:10000) diluted in 5% nonfat milk for 1 hour at RT. […]
ELISA assay was conducted as previously described. […] Plates were washed three times with TBS-T and developed with 3,3,5,5-tetramethylbenzidine (TMB + Substrate- Chromogen, S1599, Dako) The reaction was stopped using 100 μL of 1 M HCl and absorbance was read at 450 nm using POLARstar OMEGA plate reader. […]

[4] = system: SH-SY5Y cells exposed to TauO; experiment: MTS assay of TauO-induced toxicity in SH-SY5Y; type: cell-based, human; settings: 2 µM TauO, curcumin final concentration 10 μM, 24 hours
Method: Human neuroblastoma SH-SY5Y cells (ATCC CRL-2266) were maintained in DMEM and grown to confluence in 96-well plates as previously described. […] The dose-response curve was used to calculate the concentration of the compound required for 50% inhibition of cell viability (IC50).
Cell viability was corrected by the vehicle background. All measurements were performed in triplicate. The cytotoxic effect was determined using MTS assay (G3582, Promega) for assessing cell viability following the manufacturers’ instructions. Optical density (OD) was measured at 490 nm with POLARstar OMEGA plate reader (BMG Labtechnologies). Cell viability was calculated as the percentage of the OD value of treated cells compared to untreated controls, according to the following equation: Viability = (OD SAMPLE/OD CONTROL) × 100%.

[5] = MTS, 0–800 μM, 24 hours, n = 3, read-out: IC50 (cell viability)

T1 sequence (P10636 1-441 isoform P10636-8): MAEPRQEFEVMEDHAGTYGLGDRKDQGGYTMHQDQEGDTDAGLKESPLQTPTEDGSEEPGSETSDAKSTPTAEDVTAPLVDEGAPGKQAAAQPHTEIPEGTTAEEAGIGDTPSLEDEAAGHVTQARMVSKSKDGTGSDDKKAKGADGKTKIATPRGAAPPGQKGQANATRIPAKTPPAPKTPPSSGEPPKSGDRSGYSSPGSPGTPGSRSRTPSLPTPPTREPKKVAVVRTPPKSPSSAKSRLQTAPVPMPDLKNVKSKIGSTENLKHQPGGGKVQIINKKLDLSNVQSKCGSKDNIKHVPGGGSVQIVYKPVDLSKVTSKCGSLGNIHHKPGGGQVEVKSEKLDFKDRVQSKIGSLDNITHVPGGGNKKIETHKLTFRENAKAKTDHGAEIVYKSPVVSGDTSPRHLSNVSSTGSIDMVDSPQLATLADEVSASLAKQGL

| Compound | IC50 [1, 5] [µM] | LogIC50 (cell viability) ([1]; MTS, 0–800 μM, 24 hours) | further results |
| --- | --- | --- | --- |
| CN(C)c1ccc(/C=C/c2nnc(/C=C/c3ccc(N(C)C)cc3)o2)cc1 [CH8] | 110 | 2.042 |  |
| O=C(/C=C/c1ccc(F)cc1)C(=O)/C=C/c1ccc(F)cc1 [CL3] | 56.1 | 1.749 |  |
| O=C(/C=C/c1ccccc1Cl)C(=O)/C=C/c1ccccc1Cl [CL8] | 54.5 | 1.737 |  |
| O=C(/C=C/c1ccc(Cl)cc1)COC(=O)/C=C/c1ccc(Cl)cc1 [Cal7] |  | 2.281 | IC50 ([1]; 24 h, read-out: IC50 (cell viability)): 191 µM |
| CC(=O)/C=C/c1ccc(C)cc1 [HemiC9] | 124 |  |  |
| COc1cc(/C=C/C(=O)CC(=O)/C=C/c2ccc(O)c(OC)c2)ccc1O [curcumin] |  |  | aggregation state of TauO by Western blot (T22, Tau 5, Tau 13) [2]: promoting the formation of higher molecular weight tau aggregates; oligomer level, T22 immunoreactivity (direct ELISA and dot blot) [3]: significant decrease in oligomers; cell viability after TauO in the presence of compound [4]: rescued cells from TauO-induced toxicity |
